In patent EP4420661B1, “SMALL MOLECULES TARGETING GLYCOPROTEIN VI AS ANTIPLATELET AGENTS FOR USE IN THE PREVENTION AND/OR TREATMENT OF THROMBOSIS AND ASSOCIATED PATHOLOGIES” (Universidade de Santiago de Compostela, priority 2023, dated 2024):

Legend:
[1] = plasmatic stability, rat plasma; format: in vitro ADME; details: for Plasmatic stability: Rat plasma
Procedure: (§1) Rat, human, mouse and dog plasma pooled from healthy donors extracted in citrate tubes was employed in the assay.
(§2) […] Then 300µl Acetonitrile were added for precipitating plasma protein, and the plate was centrifuged at 4000 g for 60 min at 4°C.
(§3) Supernatant was taken and analyzed by UPLC/MS/MS for sample quantification. Stationary phase: Reverse phase ACQUITY BEH C18 1.7µm 2.1x50mm (Waters) Mobile phase: 0.1% Formic acid water/0.1% formic acid in acetonitrile Gradient: Table 4: UPLC gradient / Plasmatic stability assay
(§4) The chromatographic equipment employed was an UPLC QSM Waters Acquity. Compound concentrations were calculated from the MS peak areas.

[2] = metabolic stability, rat microsomes; format: in vitro ADME; details: Rat microsomes
Procedure: (§5) Microsomes from Tebu-bio Xenotech were employed in the assay, having a content of 20 mg/ml of protein. The following quantities were added to each well of a 96-well microplate. Table 6: Metabolic stability assay.
(§6) Plates were incubated at 37°C and 75 µL samples were taken at 0, 10, 20, 40 and 60 minutes.
(§7) Samples were transferred to a microplate and 75 µl Acetonitrile + IS(Rolipram) were added for inactivating the microsomes, and 30 µl of H2O with 0.5% formic acid for improving the chromatographic conditions and kept at 4°C. When all the samples were taken the plate was centrifuged at […] for 30 min at 15°C. Stationary phase: ACQUITY BEH C18 1.7µm 2.1x50mm (Waters) Mobile phase: A: 0.1% formic; B: acetonitrile+0.1% formic acid Gradient: Table 6: UPLC gradient / Metabolic stability assay
(§8) Metabolic stability was calculated from the logarithm of the remaining compound at each of the times evaluated.

[3] = plasma protein binding, Rapid Equilibrium Dialysis (RED), mouse; format: in vitro ADME; details: 4h at 37°C, (*) low recovery for (If)
Procedure: (§9) Plasma from Seralab was employed in the assay and was carried out by employing Rapid Equilibrium Dialysis (RED) from Thermo Scientific.
(§10) The compounds were dissolved at 5 µM in plasma and added to the corresponding insert of the RED device. Dialysis buffer was added to the corresponding insert of the RED device. Plate was incubated for 4h at 37°C.
(§11) After the incubation period 50 µL aliquots of each chamber were transferred to empty vials. 50 µL of dialysis buffer were added to the plasma samples and 50 µL of plasma were added to the buffer samples. 300 µL of acetonitrile were added to all the samples and centrifuged at 4000 rpm 100 µL aliquots of the supernatants were transferred to a LC analysis plate. Samples were analyzed in a UPLC/MS/MS. Stationary phase: Acquity UPLC® BEHC18 1,7 µm (2.1 mm x 50 mm) (Waters). Gradient: A (H2O + 0.1% Formic acid); B (ACN + 0.1% Formic acid); Flow: 0.6mL/min Table 8: UPLC gradient / Protein binding assay
(§12) The chromatographic equipment employed was an ACQUITY UPLC / Xevo TQD System. Compound concentrations were calculated from the MS peak areas. Table 9: Plasma protein binding of the compounds of formula (I) in rat, mice, dogs and humans / (*) low recovery

Plasma protein [4] = assay: as above; format: in vitro ADME; details: 5 µM, 4h at 37°C, (*) low recovery for (If)
Procedure: as §9, §10, §11, §12

[5] = plasmatic stability, dog plasma; format: in vitro ADME
Procedure: as §1, §2, §3, §4

human platelets [6] = assay: platelet aggregation assay, CRP-induced; format: cell-based; details: Homo sapiens, Platelet, CRP 1 µg/mL
Procedure: Platelet aggregation assays were carried out to assess the potency of the active compounds as previously described [Barrachina et al. (2021)].
Briefly, human platelets from at least =7 healthy individuals were isolated and washed. Then, the suspension was incubated with the compounds at 10 µM at 37 ∘C for 4 min in a Chrono-log® 490-X aggregometer (Chrono-log Corporation, Havertown, PA, USA). After that, platelets were stimulated with the agonist CRP at 1 µg/mL for 5 min.

[7] = metabolic stability, human microsomes; format: in vitro ADME
Procedure: as §5, §6, §7, §8

[8] = metabolic stability, mouse microsomes; format: in vitro ADME
Procedure: Samples were transferred to a microplate and 75 µl Acetonitrile + IS(Rolipram) were added for inactivating the microsomes, and 30 µl of H2O with 0.5% formic acid for improving the chromatographic conditions and kept at 4°C. When all the samples were taken the plate was centrifuged at 46000 g for 30 min at 15°C. Stationary phase: ACQUITY BEH C18 1.7µm 2.1x50mm (Waters) Mobile phase: A: 0.1% formic; B: acetonitrile+0.1% formic acid Gradient: Table 6: UPLC gradient / Metabolic stability assay

[9] = plasma protein binding, Rapid Equilibrium Dialysis (RED), human; format: in vitro ADME; details: 4h at 37°C
Procedure: as §9, §10, §11, §12

Plasma protein [10] = assay: as above; format: in vitro ADME; details: 5 µM, 4h at 37°C
Procedure: as §9, §10, §11, §12

[11] = plasma protein binding, Rapid Equilibrium Dialysis (RED), dog; format: in vitro ADME; details: 4h at 37°C
Procedure: as §9, §10, §11, §12

Plasma protein [12] = assay: as above; format: in vitro ADME; details: 5 µM, 4h at 37°C
Procedure: as §9, §10, §11, §12

human platelets [13] = assay: platelet spreading assay on CRP (phalloidin staining, confocal microscopy); format: cell-based; details: 10µM; CRP 1µg/mL; Figure 4
Procedure: Platelet spreading experiments were carried out to assess the potency of the compounds of formula (I), exemplified by compounds (If)and (Ih).
Platelets can change from a rounded, non-adherent form to adhere and flatten shape when exposed to ligands. This "spreading" effect can lead to the formation of cytoskeletal protein rearrangement. Platelet adhesion and extent of spreading (area covered) can be quantified.
Briefly, human platelets from healthy individuals were isolated and washed. Then, platelets were incubated with the inhibitors at 10µM for 5 min at room temperature and then for 45 min at 37°C in coverslips coated with 1µg/mL of agonist (CRP).
The images of platelet shape given by phalloidin staining were acquired by confocal fluorescence microscopy and the area analyzed by ImageJ [Onselaer et al., (2020)].

O=C(Cc1ccc2c(c1)OCCO2)Nc1nc(-c2ccc3c(c2)CCC(=O)N3)cs1 [Compound (If)]
Plasmatic stability ([1]; 10µM, t 0 min): 100.0
Plasmatic stability ([1]; 10µM, t 60 min): 105.5
Plasmatic stability ([1]; 10µM, t 120 min): 105.4
Plasmatic stability ([1]; 10µM, t 360 min): 81.6
Plasmatic stability ([1]; 100µM, t 0 min): 100.0
Plasmatic stability ([1]; 100µM, t 60 min): 88.8
Plasmatic stability ([1]; 100µM, t 120 min): 95.1
Plasmatic stability ([1]; 100µM, t 360 min): 65.7
plasmatic stability (in words) ([1]; rats): high plasmatic stability
half-life [2]: 1.03 h
microsomal CLint [2]: 8.89 µL/min/mg
% remanent (*) ([2]; (*) sampling time 60 min): 49.9%
fraction unbound at 4 h, 5 µM [3]: 0.0046
Unbound fraction (Plasma protein [4]): 0.46%
Plasmatic stability ([5]; 10µM, t 0 min): 100.0
Plasmatic stability ([5]; 10µM, t 60 min): 89.2
Plasmatic stability ([5]; 10µM, t 120 min): 85.1
Plasmatic stability ([5]; 10µM, t 360 min): 83.5
Plasmatic stability ([5]; 100µM, t 0 min): 100.0
Plasmatic stability ([5]; 100µM, t 60 min): 101.4
Plasmatic stability ([5]; 100µM, t 120 min): 106.5
Plasmatic stability ([5]; 100µM, t 360 min): 102.4
inhibition at 10 µM (human platelets [6]): 70 ± 19%
half-life [7]: 0.781 h
microsomal CLint [7]: 10.1 µL/min/mg
% remanent (*) ([7]; (*) sampling time 60 min): 41.21%
half-life [8]: 1.82 h
microsomal CLint [8]: 7.09 µL/min/mg
% remanent (*) ([8]; (*) sampling time 60 min): 71.6%
fraction unbound at 4 h, 5 µM [9]: 0.0011
Unbound fraction (Plasma protein [10]): 0.11%
fraction unbound at 4 h, 5 µM [11]: 0.0015
Unbound fraction (Plasma protein [12]): 0.15%
platelet spreading on CRP (in words) (human platelets [13]): inhibition of platelet spreading on CRP
